Source: publication PMC8694152, “Mutasynthetic Production and Antimicrobial Characterization of Darobactin Analogs” (Microbiology Spectrum, 2021)
Values after ≈ are worked out from the molar mass of the structure shown. Values joined by “and” are separate entries in the source; they are usually repeats but may differ in a detail not shown here. Equal values may be shown once.

Assays:
[1] = system: Klebsiella pneumoniae DSM30104; format: cell-based; details: CAMHII, 18 h, at least 85 % growth inhibition
Experimental: (§1) For details, see the supplemental material.
(§2) 146 Mueller Hinton 2 broth (CAMHII). Darobactins were screened in 12 concentrations
(§3) The same concentrations were tested for
(§4) 148 rifampicin, tetracycline and gentamycin as positive controls. For tetracycline resistant
(§5) 151 Bacteria suspension without supplemented standard antibiotics or Darobactin
(§6) 152 was used as negative control.
(§7) 154 spectrophotometer at 600 nm. […]
(§8) 172 performed at least in triplicate.

E. coli Survcare052 = format: cell-based, Escherichia coli; details: CAMHII, 18 h, at least 85 % growth inhibition
Experimental: as §1, §2, §3, §4, §5, §6, §7
(§9) 171 control. After 24 h incubation, the MIC was determined. All MIC assays were
as §8

E. coli NRZ14408 = format: cell-based, Escherichia coli; details: CAMHII, 18 h, at least 85 % growth inhibition
Experimental: as §1, §2, §3, §4, §5, §6, §7, §9, §8

E. coli MMGI1 = format: cell-based, Escherichia coli; details: CAMHII, 18 h, at least 85 % growth inhibition
Experimental: as §1, §2, §3, §4, §5, §6, §7, §9, §8

E. coli K0416 = format: cell-based, Escherichia coli; details: CAMHII, 18 h, at least 85 % growth inhibition
Experimental: as §1, §2, §3, §4, §5, §6, §7, §9, §8

[2] = system: panel of clinically relevant Gram-negative pathogens; test: MIC comparison with DAR A over the panel of test strains; format: cell-based; details: whole panel of test strains (Table 2)
Experimental: Therefore, additional clinical isolates of A. baumannii were tested.
as §1, §2, §3, §4, §5, §6
154 spectrophotometer at 600 nm. The MIC was defined as the minimum concentration
157 dilution as well, but without shaking. In aerobic conditions, overnight cultures of K.
Exponential cultures (OD 600 of
163 of test compound solutions diluted serially two-fold. After overnight incubation at 37 °C,
The MIC against Salmonella
167 conditions. Overnight cultures grown in brain–heart infusion (BHI) broth,
as §9, §8

[3] = system: Escherichia coli ATCC 35218; format: cell-based; details: CAMHII, 18 h, at least 85 % growth inhibition
Experimental: as §1, §2, §3, §4, §5, §6, §7, §9, §8

[4] = system: Acinetobacter baumannii ATCC 19606; format: cell-based; details: CAMHII, 18 h, at least 85 % growth inhibition
Experimental: as §1, §2, §3, §4, §5, §6, §7, §9, §8

[5] = system: Salmonella enterica ATCC 13076; format: cell-based; details: CAMHII, 18 h, at least 85 % growth inhibition
Experimental: as §1, §2, §3, §4, §5, §6, §7, §9, §8

various E. coli strains = test: MIC comparison with DAR A against E. coli strains; format: cell-based, Escherichia coli
From the text: New antibiotics, such as darobactin, with potency against these pathogens are desperately needed. […] This can be explained by the fact that this is the only derivative investigated not ending with the amino acid phenylalanine, which represents the most frequent amino acid of known and putative β signals from bacterial OM proteins ([7]). Therefore, DAR F would not block the β signal binding site and, thus, would not inhibit the function of BamA. […] Since Ser2 should eliminate the side chain interactions existing between Asn2 and Lys808 and Asn427 of the BamA β1 strand, it is likely that this greatly reduces DAR E’s affinity for the target and, thus, reduces its potency. In contrast to DAR A, DAR D carries an arginine in position 5 instead of lysine. If DAR A is bound to BamA, the Lys5 side chain points away from BamA, thereby enabling interaction with the negatively charged phosphate groups of phosphatidylglycerol and cardiolipin lipids ([7]). Supposedly, arginine could act similarly in the place of lysine, as arginine attracts more phosphate than lysine in membranes and can form more hydrogen bonds with phosphate clusters than lysine ([16]). Arginine is also capable of cardiolipin binding, a further important aspect of DAR and BamA binding ([17]).
as §1
146 Mueller Hinton 2 broth (CAMHII). Darobactins were screened in 12 concentrations […]

SMILES | MIC [1] | MIC (E. coli Survcare052) | MIC (E. coli NRZ14408) | MIC (E. coli MMGI1) | MIC (E. coli K0416) | fold-higher MIC values than DAR A [2] | MIC [3] | MIC [4] | MIC [5] | fold decrease in potency compared to DAR A (various E. coli strains)
N=C(N)NCCC1c2ccc3c(c[nH]c3c2)C2Oc3cccc4c(c[nH]c34)C[C@H](N)C(=O)N[C@@H](CC(N)=O)C(=O)N[C@@H]2C(=O)N[C@@H](CO)C(=O)N[C@@H]1C(=O)N[C@@H](CO)C(=O)N[C@@H](Cc1ccccc1)C(=O)O (stereo partly shown) [DAR D, darobactin D] | 64 µg/mL (≈ 64.4 µM) | >64 µg/mL | 64 µg/mL (≈ 64.4 µM) | 64 µg/mL (≈ 64.4 µM) | 32 µg/mL (≈ 32.2 µM) | 8- to 16 fold and 16 fold | 64 µg/mL (≈ 64.4 µM) | >64 µg/mL | 64 µg/mL (≈ 64.4 µM) | –
NCCCC1c2ccc3c(c[nH]c3c2)C2Oc3cccc4c(c[nH]c34)C[C@H](N)C(=O)N[C@@H](CO)C(=O)N[C@@H]2C(=O)N[C@@H](CO)C(=O)N[C@@H]1C(=O)N[C@@H](CO)C(=O)N[C@@H](Cc1ccccc1)C(=O)O (stereo partly shown) [DAR E, darobactin E] | 32 µg/mL (≈ 34.1 µM) | 64 µg/mL (≈ 68.2 µM) | 32 µg/mL (≈ 34.1 µM) | 32 µg/mL (≈ 34.1 µM) | 32 µg/mL (≈ 34.1 µM) | 8- to 16 fold | 32 µg/mL (≈ 34.1 µM) | >64 µg/mL | 32 µg/mL (≈ 34.1 µM) | 8- to 16 fold
